Laboratory results taken from patent US20100105031A1, “METHOD FOR PREDICTION OF THE EFFICACY OF VASCULARIZATION INHIBITOR” (Esai R & D Management Co., Ltd., priority 2005, published 2010).

Experiments:
[1] = test system: MDA-MB-468; assay: Antitumor effect in human cancer cell line subcutaneously transplanted model (MDA-MB-468); format: in vivo, nude mouse
Text: (§1) Human cancer cell lines A375 (purchased from Dainippon Pharma Co., Ltd.), SEKI, HMV-1 (these two lines were purchased from JCRB cell bank, National Institute of Biomedical Innovation), FEM (granted from Dr. Fodstad, The Norwegian Radiumhospital Research Foundation), LOX (purchased from AntiCancer), AZ-521 (purchased from Japan Health Science Foundation), MDA-MB-468, DLD-1, HCT116, SW620, PC-3, DU145, AsPC-1, H526, MDA-MB-231, SK-Mel-2, Lovo and A431 (these 12 lines were purchased from ATCC) were cultured with RPMI1640 (containing 10% FBS) in a 5% CO2 incubator until they reached about 80% confluence. After culturing, cells from each line w ere recovered with trypsin-EDTA by conventional procedures. The cells were suspended in phosphate buffer solution to prepare a cell suspension of 1×10^8 cells/ml or 5×10^7 cells/ml. Subsequently, 0.1 ml of the cell suspension was subcutaneously transplanted on the lateral side of each nude mouse. After transplantation, when the tumor volume reached about 100-200 mm^3, administration of 4-(3-chloro-4-(cyclopropylaminocarbonyl)-aminophenoxy)-7-methoxy-6-quinolinecarboxamide was started (100 mg/kg; twice a day; one week; oral administration). […] The major axis and minor axis of tumor were measured with a Degimatic Caliper (Mitsutoyo). Then, tumor volume and ΔT/C were calculated using the following formulas: […]

[2] = test system: MDA-MB-231; assay: Antitumor effect in human cancer cell line subcutaneously transplanted model (MDA-MB-231); format: in vivo, nude mouse
Text: as §1

[3] = test system: DU145; assay: Antitumor effect in human cancer cell line subcutaneously transplanted model (DU145); format: in vivo, nude mouse
Text: as §1

[4] = test system: AZ-521; assay: Antitumor effect in human cancer cell line subcutaneously transplanted model (AZ-521); format: in vivo, nude mouse
Text: as §1

[5] = test system: Lovo; assay: Antitumor effect in human cancer cell line subcutaneously transplanted model (Lovo); format: in vivo, nude mouse
Text: as §1

[6] = test system: SK-Mel-2; assay: Antitumor effect in human cancer cell line subcutaneously transplanted model (SK-Mel-2); format: in vivo, nude mouse
Text: as §1

[7] = test system: AsPC-1; assay: Antitumor effect in human cancer cell line subcutaneously transplanted model (AsPC-1); format: in vivo, nude mouse
Text: as §1

[8] = test system: A431; assay: Antitumor effect in human cancer cell line subcutaneously transplanted model (A431); format: in vivo, nude mouse
Text: as §1

[9] = test system: SW620; assay: Antitumor effect in human cancer cell line subcutaneously transplanted model (SW620); format: in vivo, nude mouse
Text: as §1

[10] = test system: DLD-1; assay: Antitumor effect in human cancer cell line subcutaneously transplanted model (DLD-1); format: in vivo, nude mouse
Text: as §1

[11] = test system: HCT116; assay: Antitumor effect in human cancer cell line subcutaneously transplanted model (HCT116); format: in vivo, nude mouse
Text: as §1

[12] = test system: A375; assay: Antitumor effect in human cancer cell line subcutaneously transplanted model (A375); format: in vivo, nude mouse
Text: as §1

[13] = test system: LOX; assay: Antitumor effect in human cancer cell line subcutaneously transplanted model (LOX); format: in vivo, nude mouse
Text: as §1

[14] = test system: HMV-1; assay: Antitumor effect in human cancer cell line subcutaneously transplanted model (HMV-1); format: in vivo, nude mouse
Text: as §1

[15] = test system: SEKI; assay: Antitumor effect in human cancer cell line subcutaneously transplanted model (SEKI); format: in vivo, nude mouse
Text: as §1

[16] = test system: FEM; assay: Antitumor effect in human cancer cell line subcutaneously transplanted model (FEM); format: in vivo, nude mouse
Text: as §1

[17] = test system: PC-3; assay: Antitumor effect in human cancer cell line subcutaneously transplanted model (PC-3); format: in vivo, nude mouse
Text: as §1

[18] = test system: H526; assay: Antitumor effect in human cancer cell line subcutaneously transplanted model (H526); format: in vivo, nude mouse
Text: as §1

[19] = test system: AsPC-1; assay: Example 3 antitumor effect, relative tumor volume, subcutaneously transplanted model (AsPC-1); format: in vivo, nude mouse; conditions: FIG. 2
Procedure: (§2) Human cancer cell lines AsPC-1 and H526 (both strains were purchased from ATCC) were cultured with RPMI1640 (containing 10% FBS) in a 5% CO2 incubator until they reached about 80% confluence. After culturing, cells from each strain were recovered with trypsin-EDTA by conventional procedures. The cells were suspended in phosphate buffer to prepare a cell suspension of 5×10^7 cells/ml. Subsequently, 0.1 ml of the cell suspension was subcutaneously transplanted on the lateral side of each nude mouse. After transplantation, when the tumor volume reached about 50-200 mm^3, administration of 5-(5-fluoro-2-oxo-1,2-dihydroindole-3-ylidenemethyl)-2,4-dimethyl-1H-pyrrole-3-carboxylic acid (2-diethylaminoethyl)amide (100 mg/kg, once a day, one week, oral administration) was started. The 5-(5-fluoro-2-oxo-1,2-dihydroindole-3-ylidenemethyl)-2,4-dimethyl-1H-pyrrole-3-carboxylic acid (2-diethylaminoethyl)amide was prepared based on the disclosure in WO 01/060814. The major axis and minor axis of tumor were measured with a Degimatic Caliper (Mitsutoyo). Then, tumor volume and relative tumor volume were calculated using the following formulas:
(§3) Tumor volume(TV)=tumor major axis(mm)×tumor minor axis^2(mm^2)/2
(§4) Relative tumor volume(RTV)=tumor volume on the measurement day/tumor volume on the starting day of administration

[20] = test system: H526; assay: Example 3 antitumor effect, relative tumor volume, subcutaneously transplanted model (H526); format: in vivo, nude mouse; conditions: FIG. 2
Procedure: as §2, §3, §4

[21] = test system: colorectal cancer; conditions: clinical trials; cited from earlier work
[22] = class by intensity of antitumor effect (ΔT/C)
[23] = Melanoma, 100 mg/kg twice a day, one week, oral, day 8 vs day 1
[24] = Compound 1 administration group
[25] = Compound 2 administration group, 100 mg/kg once a day, one week, oral

## COc1cc2nccc(Oc3ccc(NC(=O)NC4CC4)c(Cl)c3)c2cc1C(N)=O [Compound 1, 4-(3-chloro-4-(cyclopropylaminocarbonyl)aminophenoxy)-7-methoxy-6-quinolinecarboxamide]
[1]; MDA-MB-468, Breast cancer, 100 mg/kg twice a day, one week, oral, day 8 vs day 1
  ΔT/C: −53%
[1]; MDA-MB-468, class by intensity of antitumor effect (ΔT/C)
  Classification: Shrinkage line (Cancer cell lines which showed ΔT/C<−30% were classified as shrinkage lines)
[2]; MDA-MB-231, Breast cancer, 100 mg/kg twice a day, one week, oral, day 8 vs day 1
  ΔT/C: −33%
[2]; MDA-MB-231, class by intensity of antitumor effect (ΔT/C)
  Classification: Shrinkage line (Cancer cell lines which showed ΔT/C<−30% were classified as shrinkage lines)
[3]; DU145, Prostate cancer, 100 mg/kg twice a day, one week, oral, day 8 vs day 1
  ΔT/C: −60%
[3]; DU145, class by intensity of antitumor effect (ΔT/C)
  Classification: Shrinkage line (Cancer cell lines which showed ΔT/C<−30% were classified as shrinkage lines)
[4]; AZ-521, Gastric cancer, 100 mg/kg twice a day, one week, oral, day 8 vs day 1
  ΔT/C: −57%
[4]; AZ-521, class by intensity of antitumor effect (ΔT/C)
  Classification: Shrinkage line (Cancer cell lines which showed ΔT/C<−30% were classified as shrinkage lines)
[5]; Large bowel cancer, 100 mg/kg twice a day, one week, oral, day 8 vs day 1
  ΔT/C: −11%
[5]; [22]
  Classification: Rest line (cancer cell lines which showed −30%<ΔT/C<10% were classified as rest lines)
[6]; SK-Mel-2, Melanoma, 100 mg/kg twice a day, one week, oral, day 8 vs day 1
  ΔT/C: −2.5%
[6]; SK-Mel-2, class by intensity of antitumor effect (ΔT/C)
  Classification: Rest line (cancer cell lines which showed −30%<ΔT/C<10% were classified as rest lines)
[7]; AsPC-1, Pancreatic cancer, 100 mg/kg twice a day, one week, oral, day 8 vs day 1
  ΔT/C: −8%
[7]; AsPC-1, class by intensity of antitumor effect (ΔT/C)
  Classification: Rest line (cancer cell lines which showed −30%<ΔT/C<10% were classified as rest lines)
[8]; A431, Epidermoid carcinoma, 100 mg/kg twice a day, one week, oral, day 8 vs day 1
  ΔT/C: −8%
[8]; A431, class by intensity of antitumor effect (ΔT/C)
  Classification: Rest line (cancer cell lines which showed −30%<ΔT/C<10% were classified as rest lines)
[9]; SW620, Large bowel cancer, 100 mg/kg twice a day, one week, oral, day 8 vs day 1
  ΔT/C: 22%
[9]; SW620, class by intensity of antitumor effect (ΔT/C)
  Classification: Proliferation line (cancer cell lines which showed 10%<ΔT/C were classified as proliferation lines)
[10]; DLD-1, Large bowel cancer, 100 mg/kg twice a day, one week, oral, day 8 vs day 1
  ΔT/C: 52%
[10]; DLD-1, class by intensity of antitumor effect (ΔT/C)
  Classification: Proliferation line (cancer cell lines which showed 10%<ΔT/C were classified as proliferation lines)
[11]; HCT116, Large bowel cancer, 100 mg/kg twice a day, one week, oral, day 8 vs day 1
  ΔT/C: 17%
[11]; HCT116, class by intensity of antitumor effect (ΔT/C)
  Classification: Proliferation line (cancer cell lines which showed 10%<ΔT/C were classified as proliferation lines)
[12]; A375, Melanoma, 100 mg/kg twice a day, one week, oral, day 8 vs day 1
  ΔT/C: 26%
[12]; A375, class by intensity of antitumor effect (ΔT/C)
  Classification: Proliferation line (cancer cell lines which showed 10%<ΔT/C were classified as proliferation lines)
[13]; [23]
  ΔT/C: 42%
[13]; [22]
  Classification: Proliferation line (cancer cell lines which showed 10%<ΔT/C were classified as proliferation lines)
[14]; HMV-1, Melanoma, 100 mg/kg twice a day, one week, oral, day 8 vs day 1
  ΔT/C: 19%
[14]; HMV-1, class by intensity of antitumor effect (ΔT/C)
  Classification: Proliferation line (cancer cell lines which showed 10%<ΔT/C were classified as proliferation lines)
[15]; [23]
  ΔT/C: 110%
[15]; [22]
  Classification: Proliferation line (cancer cell lines which showed 10%<ΔT/C were classified as proliferation lines)
[16]; [23]
  ΔT/C: 55%
[16]; [22]
  Classification: Proliferation line (cancer cell lines which showed 10%<ΔT/C were classified as proliferation lines)
[17]; PC-3, Prostate cancer, 100 mg/kg twice a day, one week, oral, day 8 vs day 1
  ΔT/C: 54%
[17]; PC-3, class by intensity of antitumor effect (ΔT/C)
  Classification: Proliferation line (cancer cell lines which showed 10%<ΔT/C were classified as proliferation lines)
[18]; H526, Small cell lung cancer, 100 mg/kg twice a day, one week, oral, day 8 vs day 1
  ΔT/C: 22%
[18]; H526, class by intensity of antitumor effect (ΔT/C)
  Classification: Proliferation line (cancer cell lines which showed 10%<ΔT/C were classified as proliferation lines)
[19]; [24]
  tumor proliferation: rested
[20]; [24]
  tumor proliferation: delayed

## CCN(CC)CCNC(=O)c1c(C)[nH]c(/C=C2\C(=O)Nc3ccc(F)cc32)c1C [Compound 2, 5-(5-fluoro-2-oxo-1,2-dihydroindole-3-ylidenemethyl)-2,4-dimethyl-1H-pyrrole-3-carboxylic acid (2-diethylaminoethyl)amide, reference compound]
[19]; [25]
  tumor proliferation: rested
[20]; [25]
  tumor proliferation: delayed

## bevacizumab: human anti-VEGF monoclonal antibody sold by Genentech as Avastin
[21]
  antitumor effect: shown an antitumor effect
